Laboratory results as given in patent US20180163250A1, “Screening Broths Comprising Esculatin Compounds for the Detection of Specific Microorganisms” (Neogen Corporation, priority 2016, published 2018).

Columns and labels:
[1] = test system: methicillin resistant staphylococcus aureus strains; assay: Growth and initial color change in MRSA screening broth (LAB588) containing the substrate; type: cell-based; conditions: for Initial color change indicating the presence of MRSA: LAB588 broth with cefoxitin, 100-1000 cfu
Experimental: (§1) CHE-phosphate, and 3,4-cyclohexenoesculatin diphosphate were dissolved at 200 mg/ml in a 50:50 mixture of dimethylformamide and water. 5-bromo-4-chloroindoxyl phosphate was dissolved at 200 mg/ml in a 50:50 mixture of ethanol and water. The mixtures of compounds were added individually to a MRSA broth (LAB588; Lab M limited) pre-dispensed to 10 ml volumes, after supplementation with cefoxitin selective agent, as 25 μL additions from the prepared stock solutions.
(§2) A 0.5 Macfarlane standard suspension of methicillin resistant staphylococcus aureus strains were prepared from 18-24 h cultures grown in tryptic soy broth (LAB004; Lab M Limited) at 37° C. These were diluted and added to the MRSA broth samples in an amount sufficient to inoculate each sample with 100-1000 colony forming units (cfu). Target concentration was achieved by diluting a culture to a target level and inoculating sets of tubes at different inoculum dilutions so as to achieve the target range. The actual quantity inoculated was confirmed by plating 50 μl of the dilution onto Tryptone soy agar (LAB011) and incubating the plates for 18-24 h at 37° C. and counting the resulting colonies. This information was used to determine which tubes had been inoculated within the target dosing range.
(§3) The broth is designed to selectively indicate a positive presence of MRSA by a yellow color, or a presumptive positive presence of MRSA by an orange color (Table 1). To the CHE-phosphate and 3,4-cyclohexenoesculatin diphosphate was added 50 μL of a 250/mg/ml stock solution of Ferric ammonium citrate and samples were allowed to incubate at ambient temperature for 5 minutes.

[2] = test system: phosphatase activity of methicillin resistant staphylococcus aureus; assay: Blackening after addition of ferric ammonium citrate (free CHE, phosphatase activity) in MRSA broth; type: cell-based; conditions: for blackening after the addition of ferric ammonium citrate indicating the presence of free 3,4-cyclohexenoesculatin: 5 minutes at ambient temperature after FAC
Experimental: as §1, §2, §3

[3] = test system: methicillin resistant staphylococcus aureus; assay: CHE-phosphate in MRSA broth before and after FAC: MRSA strains; type: cell-based; conditions: for Broth color after addition of FAC: 5 minutes at ambient temperature after FAC; for Broth color before addition FAC: LAB588, 37° C. for 22 hours
Description: (§4) Scheme 2 above provides a pictorial representation of CHE-phosphate discriminating between methicillin resistant staphylococcus aureus and methicillin resistant coagulase negative Staphylococcus. The single phosphate group from CHE-phosphate is removed by the phosphatase activity of methicillin resistant staphylococcus aureus, but not by the coagulase negative staphylococcus, which lack this phosphatase activity. Addition of ferric ammonium citrate produces the dark, insoluble iron-3,4-cyclohexenoesculatin complex indicating the presence of methicillin resistant staphylococcus aureus. The dark complex is not formed between ferric ammonium citrate and CHE-phosphate, and therefore indicates the absence of phosphatase activity. Accordingly, a lack of a dark precipitate indicates the absence of methicillin resistant staphylococcus aureus.
(§5) A panel of MRSA strains and coagulase negative staphylococci (clinical isolates) were cultured and tested in MRSA broth with CHE-phosphate using the same methodology as Example 2 CHE-phosphate was Dissolved at 200 mg/ml in 50:50 mixture of dimethylformamide and water. LAB588 (MRSA broth, Lab M limited) pre-dispensed to 10 ml volumes was supplemented with 25 μL aliquots from the prepared stock solution. A 0.5 Macfarlane standard suspension of methicillin resistant staphylococcus aureus and coagulase negative staphylococci strains were prepared from 18-24 h cultures grown in tryptic soy broth (LAB004, Lab M Limited) at 37° C. These were diluted to an amount sufficient to inoculate each sample with 100-1000 cfu. Samples were then incubated at 37° C. for 22 hours and observed for growth and color change. 50 μL aliquots of a 250 mg/ml stock solution of Ferric ammonium citrate (FAC) was then added to each sample and allowed to incubate at ambient temperature for 5 minutes. The samples were then observed for blackening indicating phosphatase activity by the presence of free 3,4-cyclohexenoesculatin (Table 3).

[4] = test system: methicillin resistant coagulase negative staphylococcus (clinical isolates); assay: CHE-phosphate in MRSA broth before and after FAC: coagulase negative staphylococci; type: cell-based; conditions: for Broth color after addition of FAC: 5 minutes at ambient temperature after FAC; for Broth color before addition FAC: LAB588, 37° C. for 22 hours
Description: as §4, §5

[5] = test system: MRSA phosphatase activity; assay: Confirmatory enzymatic test for MRSA phosphatase activity in the MRSA screening broth (initial investigation); type: cell-based, staphylococcus aureus; conditions: substrate and ferric ammonium citrate added at end of incubation, or substrate included before incubation
Description: MRSA detection broths based on the principle of mannitol and trehalose utilization and cefoxitin were designed to be a selective system for high throughput screening of clinical MRSA samples. The broths allow high volume screening of the majority of patient samples by a low cost method with confirmation of the few presumptive positive samples by rapid methods. The broths achieved good performance relative to Mannitol salts broth enrichment and/or direct plating (>98% sensitivity and >96 selectivity). In order to further enhance the selectivity of this broth system, the use of a confirmatory enzymatic test targeted at the MRSA phosphatase activity was investigated. […] Fluorogenic phosphatase substrate, although giving a confirming reaction, suffered from the disadvantage of nonspecific fluorescence in the broth probably due to compound stability, and also necessitated the use of non-auto fluorescent glass or plastic tubes. […]

O=c1oc2cc(O)c(OP(=O)(O)O)cc2c2c1CCCC2 [CHE-phosphate, sodium 3,4-cyclohexenoesculatin-6-phosphate (sodium 3-hydroxy-6-oxo-7,8,9,10-tetrahydro-6H-benzo[c]chromen-2-yl phosphate)]
Initial color change indicating the presence of MRSA ([1]; MRSA 3): Growth (yellow)
Initial color change indicating the presence of MRSA ([1]; MRSA 15): Growth (yellow)
Initial color change indicating the presence of MRSA ([1]; MRSA 15A (clinical isolate)): Growth (yellow)
Initial color change indicating the presence of MRSA ([1]; MRSA 15B (clinical isolate)): Growth (yellow)
Initial color change indicating the presence of MRSA ([1]; MRSA 15C (clinical isolate)): Growth (orange)
Initial color change indicating the presence of MRSA ([1]; MRSA 16A (clinical isolate)): Growth (orange)
Initial color change indicating the presence of MRSA ([1]; MRSA 16B (clinical isolate)): Growth (orange)
Initial color change indicating the presence of MRSA ([1]; MRSA 16C (clinical isolate)): Growth (orange)
Inhibition of the growth of MRSA ([1]; MRSA broth LAB588, summary of Table 1): not inhibitory
Initial color change indicating the presence of MRSA ([1]; S. aureus NCTC 12493): Growth (yellow)
blackening after the addition of ferric ammonium citrate indicating the presence of free 3,4-cyclohexenoesculatin ([2]; MRSA 3): Blackening
blackening after the addition of ferric ammonium citrate indicating the presence of free 3,4-cyclohexenoesculatin ([2]; MRSA 15): Blackening
blackening after the addition of ferric ammonium citrate indicating the presence of free 3,4-cyclohexenoesculatin ([2]; MRSA 15A (clinical isolate)): Blackening
blackening after the addition of ferric ammonium citrate indicating the presence of free 3,4-cyclohexenoesculatin ([2]; MRSA 15B (clinical isolate)): Blackening
blackening after the addition of ferric ammonium citrate indicating the presence of free 3,4-cyclohexenoesculatin ([2]; MRSA 15 C (clinical isolate)): Blackening
blackening after the addition of ferric ammonium citrate indicating the presence of free 3,4-cyclohexenoesculatin ([2]; MRSA 16A (clinical isolate)): Blackening
blackening after the addition of ferric ammonium citrate indicating the presence of free 3,4-cyclohexenoesculatin ([2]; MRSA 16B (clinical isolate)): Blackening
blackening after the addition of ferric ammonium citrate indicating the presence of free 3,4-cyclohexenoesculatin ([2]; MRSA 16 C (clinical isolate)): Blackening
blackening after the addition of ferric ammonium citrate indicating the presence of free 3,4-cyclohexenoesculatin ([2]; S. aureus NCTC 12493): Blackening
Specificity of enzymatic phosphatase activity for the substrate ([2]; summary of Table 2): specific
Broth color after addition of FAC ([3]; MRSA 3): Black
Broth color before addition FAC ([3]; MRSA 3): Yellow
Broth color after addition of FAC ([3]; MRSA 15): Black
Broth color before addition FAC ([3]; MRSA 15): Yellow
Broth color after addition of FAC ([3]; MRSA 16A): Black
Broth color before addition FAC ([3]; MRSA 16A): Orange
Broth color after addition of FAC ([3]; MRSA 16B): Black
Broth color before addition FAC ([3]; MRSA 16B): Orange
Broth color after addition of FAC ([3]; MRSA 75): Black
Broth color before addition FAC ([3]; MRSA 75): Orange
Broth color after addition of FAC ([3]; S. aureus NCTC 12493): Black
Broth color before addition FAC ([3]; S. aureus NCTC 12493): Yellow
Specificity for the phosphatase enzyme of MRSA versus methicillin resistant coagulase negative staphylococci ([3]; summary of Table 3): specific for the phosphatase enzyme of MRSA
Broth color after addition of FAC ([4]; CNS 22): Orange
Broth color before addition FAC ([4]; CNS 22): Orange
Broth color after addition of FAC ([4]; CNS 28): yellow
Broth color before addition FAC ([4]; CNS 28): yellow
Broth color after addition of FAC ([4]; CNS 33): orange
Broth color before addition FAC ([4]; CNS 33): orange
Blackening reaction in the MRSA screening broth [5]: readily observable blackening reaction
